Earlier results, collected in US9255080B2, “Quinazolinedione derivatives as PARP inhibitors” (Janssen Pharmaceutica NV, priority 2004, dated 2016).

Columns and labels:
[1] = system: ischemia and reperfusion of the heart; details: rabbits, cited from earlier work
[2] = system: colitis induced by trinitrobenzene sulfonic acid; details: rats, colitis by intraluminal trinitrobenzene sulfonic acid in 50% ethanol; cited from earlier work

SMILES | reduction in infarct size ([1]; single injection 1 mg/kg) | reduction in infarct size in the heart ([1]; single injection 10 mg/kg, one minute before occlusion or one minute before reperfusion) | effect on inflammatory response and distal colon [2]
Oc1cccc2c(O)nccc12 [1,5-dihydroxyisoquinoline] | 38-48% | – | –
NC(=O)c1cccc(N)c1 [3-amino-benzamide] | – | 32-42% | reduced the inflammatory response and restored the morphology and the energetic status of the distal colon
